Data from BigSolDB 2.1.

N=C(N)N.O=[N+]([O-])O
Settings | solubility (mole fraction)
in acetone, 278.15 K | 0.0003
in acetone, 283.15 K | 0.0005
in acetone, 288.15 K | 0.0009
in acetone, 293.15 K | 0.0016
in acetone, 298.15 K | 0.0029
in acetone, 303.15 K | 0.0052
in acetone, 308.15 K | 0.0092
in acetone, 313.15 K | 0.0158
in acetone, 323.15 K | 0.0503
in ethanol, 278.05 K | 0.003
in ethanol, 283.15 K | 0.0037
in ethanol, 288.35 K | 0.0043
in ethanol, 293.15 K | 0.0051
in ethanol, 298.25 K | 0.0062
in ethanol, 303.25 K | 0.007
in ethanol, 308.25 K | 0.0081
in ethanol, 313.05 K | 0.0094
in ethanol, 318.05 K | 0.0108
in ethanol, 323.25 K | 0.0124
in ethanol, 328.35 K | 0.0143
in methanol, 278.25 K | 0.0063
in methanol, 283.25 K | 0.0075
in methanol, 288.25 K | 0.0092
in methanol, 293.25 K | 0.0107
in methanol, 298.35 K | 0.0126
in methanol, 303.15 K | 0.0148
in methanol, 308.35 K | 0.0174
in methanol, 313.15 K | 0.0198
in methanol, 318.25 K | 0.0227
in methanol, 323.35 K | 0.0264
in methanol, 328.05 K | 0.0305
in n-propanol, 278.25 K | 0.0009
in n-propanol, 283.25 K | 0.0013
in n-propanol, 288.25 K | 0.0017
in n-propanol, 293.15 K | 0.002
in n-propanol, 298.35 K | 0.0029
in n-propanol, 303.15 K | 0.0041
in n-propanol, 308.35 K | 0.0048
in n-propanol, 313.15 K | 0.0061
in n-propanol, 318.25 K | 0.0077
in n-propanol, 323.15 K | 0.0092
in n-propanol, 328.05 K | 0.012
in water, 278.25 K | 0.009
in water, 283.35 K | 0.0112
in water, 288.25 K | 0.0136
in water, 292.95 K | 0.0157
in water, 298.25 K | 0.019
in water, 303.15 K | 0.0222
in water, 308.35 K | 0.0262
in water, 313.05 K | 0.0302
in water, 318.25 K | 0.0349
in water, 323.25 K | 0.0401
in water, 328.35 K | 0.0463
in water, 332.85 K | 0.0511
